Assays:
Assay in all cases: NCI human tumor cell panel
[1] = test system: IGROV1; type: cell-based; conditions: IGROV-1, read-out: Log10 LC50 (converted)
[2] = test system: A498; type: cell-based; conditions: A498, read-out: Log10 LC50 (converted)
[3] = test system: SN12C; type: cell-based; conditions: read-out: Log10 LC50 (converted)
[4] = test system: A549/ATCC; type: cell-based; conditions: A549, read-out: Log10 LC50 (converted)
[5] = test system: SF-539; type: cell-based; conditions: SF-539, read-out: Log10 LC50 (converted)
[6] = test system: OVCAR-5; type: cell-based; conditions: OVCAR-5, read-out: Log10 LC50 (converted)
[7] = test system: MOLT-4; type: cell-based; conditions: MOLT-4, read-out: Log10 LC50 (converted)
[8] = test system: RPMI-8226; type: cell-based; conditions: RPMI-8226, read-out: Log10 LC50 (converted)
[9] = test system: HS 578T; type: cell-based; conditions: read-out: Log10 LC50 (converted)
[10] = test system: OVCAR-4; type: cell-based; conditions: OVCAR-4, read-out: Log10 LC50 (converted)
[11] = test system: 786-0; type: cell-based; conditions: 786-0, read-out: Log10 LC50 (converted)
[12] = test system: HCT-15; type: cell-based; conditions: HCT-15, read-out: Log10 LC50 (converted)
[13] = test system: NCI-H322M; type: cell-based; conditions: read-out: Log10 LC50 (converted)
[14] = test system: SW-620; type: cell-based; conditions: SW-620, read-out: Log10 LC50 (converted)
[15] = test system: HCC-2998; type: cell-based; conditions: HCC 2998, read-out: Log10 LC50 (converted)
[16] = test system: SK-MEL-2; type: cell-based; conditions: SK-MEL-2, read-out: Log10 LC50 (converted)
[17] = test system: PC-3; type: cell-based; conditions: PC-3, read-out: Log10 LC50 (converted)
[18] = test system: DU-145; type: cell-based; conditions: DU-145, read-out: Log10 LC50 (converted)
[19] = test system: SR; type: cell-based; conditions: read-out: Log10 LC50 (converted)
[20] = test system: HCT-116; type: cell-based; conditions: HCT-116, read-out: Log10 LC50 (converted)
[21] = test system: SNB-19; conditions: SNB-19, read-out: Log10 LC50 (converted)

Row | SMILES | CC50 [1] | CC50 [2] | CC50 [3] | CC50 [4] | CC50 [5] | CC50 [6] | CC50 [7] | CC50 [8] | CC50 [9] | CC50 [10] | CC50 [11] | CC50 [12] | LC50 (concentration killing 50% of cells) [13] | CC50 [14] | CC50 [15] | CC50 [16] | CC50 [17] | CC50 [18] | CC50 [19] | CC50 [20] | further results
1 | O=Cc1ccc(-c2ccc(-c3ccc(C=O)[se]3)[se]2)[se]1 | 74.1 µM | 6.76 µM | > 100 µM | > 100 µM | > 100 µM | > 100 µM | > 100 µM | > 100 µM | > 100 µM | > 100 µM | > 100 µM | > 100 µM | > 100 µM | > 100 µM | > 100 µM | > 100 µM | > 100 µM | > 100 µM | > 100 µM | > 100 µM | CC50 [21]: > 100 µM
2 | O=Cc1ccc(-c2ccc(-c3cccs3)[se]2)s1 | > 100 µM | 0.933 µM | > 100 µM | > 100 µM | > 100 µM | > 100 µM | > 100 µM | > 100 µM | > 100 µM | > 100 µM | > 100 µM | > 100 µM | > 100 µM | > 100 µM | 20.9 µM | > 100 µM | > 100 µM | > 100 µM | > 100 µM | > 100 µM | CC50 [21]: > 100 µM
3 | O=Cc1ccc(-c2ccc(-c3ccc(C=O)s3)[se]2)s1 | > 100 µM | 4.07 µM | > 100 µM | > 100 µM | > 100 µM | > 100 µM | > 100 µM | > 100 µM | > 100 µM | > 100 µM | > 100 µM | > 100 µM | > 100 µM | > 100 µM | 74.1 µM | > 100 µM | > 100 µM | > 100 µM | > 100 µM | > 100 µM | CC50 [21]: > 100 µM
